The values below come from PMC11071649, “Synthesis and Selective Anticancer Activity Evaluation of 2-phenylacrylonitrile Derivatives as Tubulin Inhibitors” (Current Medicinal Chemistry, 2024).

Type in all cases: cell-based, human
Test [1] deals with Raji B lymphoblastoid cell. The test can be described thus: MTT anti-proliferative assay, Raji. Particulars: for IC50: MTT, 48 h, read-out: IC50 Raji. A digest of the protocol:
(§1)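 Cells grown in DMEM supplemented with FBS were seeded in 96-well format and treated with the analogs. Cytotoxicity was scored by MTT as reduction of net growth.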

Test [2] relates to HeLa cervical cancer cell. The test can be described thus: MTT anti-proliferative assay, HeLa. The note with it: MTT, 48 h. In a few lines: as §1
Another test has as its system MCF-7 breast cancer cell. In words: MTT anti-proliferative assay, MCF-7. The note with it: MTT, 48 h. In a few lines: as §1
Another test has as its system HepG2 hepatoma cell. In words: MTT anti-proliferative assay, HepG2. Particulars: MTT, 48 h; read-out: IC50 HepG-2. In a few lines:
as §1
On the technique in general: Tetrazolium assays rely on reduction of a dye to a coloured formazan, in cell work by metabolically active cells.

A further test relates to A549 lung cancer cell. In words: MTT anti-proliferative assay, A549. Particulars: for IC50: MTT, 48 h. A digest of the protocol:
as §1

For another test, the system named is L-02 normal liver cell. In words: MTT assay, L-02 normal cells. The note with it: 48 h. In a few lines: as §1
The subject of test [3] is HCT116 colectal cancer cell. The test can be described thus: MTT anti-proliferative assay, HCT116. The note with it: for IC50: MTT, 48 h, read-out: IC50 HCT-116. A digest of the protocol:
as §1

Test [4] has as its system MGC-803 late stage differentiation gastric cancer cell. In words: MTT anti-proliferative assay, MGC-803. The note with it: for IC50: MTT, 48 h. A digest of the protocol:
as §1

Test [5] concerns diffuse large B-cell lymphoma SU-DHL-10 cell. In words: MTT anti-proliferative assay, SU-DHL-10. The note with it: for IC50: MTT, 48 h, read-out: IC50 SU-DHL-10. A digest of the protocol: as §1
For another test, the system named is AGS gastric cancer cell. In words: MTT anti-proliferative assay, AGS. Particulars: for IC50: MTT, 48 h. A digest of the protocol: as §1
Test [6] deals with MCF-10A normal breast cell. In words: MTT assay, MCF-10A normal cells. Particulars: 48 h. In a few lines:
as §1

Test [7] relates to SGC-7901 early differentiation gastric cancer cell. The test can be described thus: MTT anti-proliferative assay, SGC-7901. Particulars: MTT, 48 h. A digest of the protocol:
as §1

The test system of test [8] is BEL-7402 liver cancer cell. In words: MTT anti-proliferative assay, BEL-7402. Particulars: MTT, 48 h. A digest of the protocol:
as §1

The term IC50 denotes the midpoint of a concentration-inhibition curve.

Regarding `N#C/C(=C\c1ccccc1)c1ccc(C(F)(F)F)cc1` [Compound 1f2c], the 50% inhibitory concentration (IC50) (in test [1]; in [2]; with MCF-7 breast cancer cell; in the test on HepG2 hepatoma cell; in the test on A549 lung cancer cell; in the test on L-02 normal liver cell) was more than 100 µM each time. Also, the IC50 (in test [3]; in test [4]; in test [5]; with AGS gastric cancer cell; in test [6]; in test [7]) was more than 100 µM each time. Moreover, the IC50 in [8] is more than 100 µM.
Take `N#C/C(=C\c1ccc(F)cc1)c1ccc(C(F)(F)F)cc1` [Compound 1f2d]: the IC50 (in [1]; in [2]; with MCF-7 breast cancer cell; in the test with HepG2 hepatoma cell; in the test on A549 lung cancer cell; in the test on L-02 normal liver cell) was more than 100 µM in each case. For the same compound, the half-maximal inhibitory concentration (IC50) in test [3] is more than 100 µM; in [4] it was 51.9 ± 2.1 µM; in [5] it was more than 100 µM; in the test on AGS gastric cancer cell, more than 100 µM; in test [6], more than 100 µM; in test [7] it was more than 100 µM. This compound also registered an IC50 in test [8] of more than 100 µM. Moreover, the “SI (selectivity index), IC50 (L-02)/IC50 (MGC-803)” value in [4] is more than 1.9.
As for `N#C/C(=C\c1ccc(Cl)cc1)c1ccc(C(F)(F)F)cc1` [Compound 1f2e], the IC50 (in test [1]; in [2]; in the test on MCF-7 breast cancer cell; in the test with HepG2 hepatoma cell; with A549 lung cancer cell; with L-02 normal liver cell) was more than 100 µM throughout. For the same compound, the IC50 (in test [3]; in test [4]; in test [5]; in the test on AGS gastric cancer cell; in [6]; in test [7]) was more than 100 µM each time. Also, in test [8], the IC50 is more than 100 µM.
Turning to `N#C/C(=C\c1ccc(Br)cc1)c1ccc(C(F)(F)F)cc1` [Compound 1f2f], the IC50 (in [1]; in [2]; in the test on MCF-7 breast cancer cell; in the test on HepG2 hepatoma cell; in the test on A549 lung cancer cell; with L-02 normal liver cell) was more than 100 µM in each case. The IC50 (in [3]; in [4]; in test [5]; with AGS gastric cancer cell; in [6]; in test [7]) was more than 100 µM in each case. In addition, the IC50 in test [8] was more than 100 µM.
For the compound `N#C/C(=C\c1ccccc1F)c1ccc(C(F)(F)F)cc1` [Compound 1f2g], the IC50 (in test [1]; in test [2]; with MCF-7 breast cancer cell; in the test on HepG2 hepatoma cell; in the test with A549 lung cancer cell; with L-02 normal liver cell) was more than 100 µM in each case. In addition, the IC50 (in test [3]; in [4]; in test [5]; in the test on AGS gastric cancer cell; in test [6]; in test [7]) was more than 100 µM each time. Besides, the IC50 in test [8] is more than 100 µM.
In the case of `N#C/C(=C\c1cccc(F)c1)c1ccc(C(F)(F)F)cc1` [Compound 1f2h], the concentration for half-maximal inhibition (IC50) (in [1]; in test [2]; in the test on MCF-7 breast cancer cell; in the test on HepG2 hepatoma cell; in the test with A549 lung cancer cell; in the test on L-02 normal liver cell) was more than 100 µM in each case. Besides, the half-inhibitory concentration (IC50) in test [3] is more than 100 µM; in [4], more than 100 µM; in test [5], 58.4 ± 9 µM; with AGS gastric cancer cell, more than 100 µM; in test [6], more than 100 µM; in test [7], more than 100 µM. In addition, the IC50 in test [8] is more than 100 µM. Besides, the “SI (selectivity index), IC50 (L-02)/IC50 (SU-DHL-10)” value in test [5] is reported as more than 1.7.
`N#C/C(=C\c1ccccc1Br)c1ccc(C(F)(F)F)cc1` [Compound 1f2i]: the IC50 (in test [1]; in [2]; in the test with MCF-7 breast cancer cell; with HepG2 hepatoma cell; in the test on A549 lung cancer cell; in the test on L-02 normal liver cell) was more than 100 µM each time. Besides, the half-inhibitory concentration (IC50) in [3] was more than 100 µM; in test [4], more than 100 µM; in test [5], more than 100 µM; in the test with AGS gastric cancer cell, 42 ± 11.7 µM; in test [6], more than 100 µM; in test [7], more than 100 µM. Further, the IC50 in [8] was more than 100 µM. The “SI (selectivity index), IC50 (L-02)/IC50 (AGS)” value (from here on “SI (selectivity index) … (AGS)”) in the test with AGS gastric cancer cell is recorded as more than 2.3.
For `N#C/C(=C\c1c(F)cccc1Cl)c1ccc(C(F)(F)F)cc1` [Compound 1f2j], the IC50 (in test [1]; in test [2]; with MCF-7 breast cancer cell; with HepG2 hepatoma cell; in the test with A549 lung cancer cell; in the test on L-02 normal liver cell) was more than 100 µM each time. Further, the IC50 (in test [3]; in test [4]; in test [5]; in the test with AGS gastric cancer cell; in [6]; in [7]) was more than 100 µM in each case. The same compound registered an IC50 in test [8] of more than 100 µM.
As to `N#C/C(=C\c1ccc(C(F)(F)F)cc1)c1ccc(C(F)(F)F)cc1` [Compound 1f2k], the IC50 in test [1] was 77.4 ± 13.6 µM; in test [2], more than 100 µM; in the test with MCF-7 breast cancer cell it was more than 100 µM; in the test on HepG2 hepatoma cell, more than 100 µM; with A549 lung cancer cell it was 47.8 ± 4 µM; with L-02 normal liver cell, more than 100 µM. In addition, the concentration for half-maximal inhibition (IC50) in test [3] is more than 100 µM; in test [4], more than 100 µM; in test [5], more than 100 µM; in the test with AGS gastric cancer cell, 53.2 ± 13.2 µM; in test [6], more than 100 µM; in [7], more than 100 µM. In test [8], this compound displayed an IC50 of more than 100 µM. In addition, the “SI (selectivity index), IC50 (L-02)/IC50 (A549)” value in the test with A549 lung cancer cell was more than 2.0. The “SI (selectivity index) … (AGS)” value in the test with AGS gastric cancer cell was more than 1.8.
`N#C/C(=C\c1cccc(C(F)(F)F)c1)c1ccc(C(F)(F)F)cc1` [Compound 1f2l]: in [1], the “SI (selectivity index), IC50 (L-02)/IC50 (Raji)” value is listed as more than 1.3. In addition, the IC50 in test [1] was 72.1 ± 7.2 µM; in [2], more than 100 µM; with MCF-7 breast cancer cell it was more than 100 µM; in the test on HepG2 hepatoma cell it was more than 100 µM; in the test with A549 lung cancer cell, more than 100 µM; with L-02 normal liver cell, more than 100 µM. Also, the IC50 in test [3] is more than 100 µM; in test [4] it was more than 100 µM; in test [5], 50.1 ± 20.9 µM; in the test on AGS gastric cancer cell, more than 100 µM; in test [6], more than 100 µM; in test [7], more than 100 µM. The same compound showed a 50% inhibitory concentration (IC50) in test [8] of more than 100 µM. Further, the “SI (selectivity index), IC50 (L-02)/IC50 (SU-DHL-10)” value in test [5] is on record as more than 1.9.
As to `N#C/C(=C\c1ccccc1C(F)(F)F)c1ccc(C(F)(F)F)cc1` [Compound 1f2m], the IC50 (in test [1]; in [2]; in the test on MCF-7 breast cancer cell; in the test with HepG2 hepatoma cell; with A549 lung cancer cell; in the test with L-02 normal liver cell) was more than 100 µM in each case. For the same compound, the IC50 (in [3]; in test [4]; in [5]; in the test on AGS gastric cancer cell; in [6]; in test [7]) was more than 100 µM each time. In test [8], this compound returned an IC50 of more than 100 µM. The “SI (selectivity index), IC50 (L-02)/IC50 (A549)” value with A549 lung cancer cell was more than 2.6. In addition, the “SI (selectivity index), IC50 (L-02)/IC50 (HCT-116)” value in [3] is reported as more than 1.7. In the test on AGS gastric cancer cell, the “SI (selectivity index) … (AGS)” value is reported as more than 2.1.
In the case of `Cc1ccc(/C=C(\C#N)c2ccc(C(F)(F)F)cc2)cc1` [Compound 1f2n], the IC50 in [1] is more than 100 µM; in test [2] it was more than 100 µM; in the test on MCF-7 breast cancer cell it was more than 100 µM; with HepG2 hepatoma cell, more than 100 µM; with A549 lung cancer cell, 37.9 ± 1 µM; in the test on L-02 normal liver cell, more than 100 µM. For the same compound, the IC50 is 57.3 ± 3.2 µM in test [3]; more than 100 µM in test [4]; more than 100 µM in [5]; 46.4 ± 15 µM with AGS gastric cancer cell; more than 100 µM in [6]; more than 100 µM in test [7]. The compound further returned an IC50 in test [8] of more than 100 µM. In addition, the “SI (selectivity index) … (AGS)” value in the test on AGS gastric cancer cell was more than 2.4.
Take `Cc1cccc(/C=C(\C#N)c2ccc(C(F)(F)F)cc2)c1` [Compound 1f2o]: the half-inhibitory concentration (IC50) (in [1]; in test [2]; with MCF-7 breast cancer cell; in the test with HepG2 hepatoma cell; in the test on A549 lung cancer cell; in the test on L-02 normal liver cell) was more than 100 µM in each case. Moreover, the IC50 in [3] was more than 100 µM; in [4], more than 100 µM; in [5] it was more than 100 µM; in the test on AGS gastric cancer cell, 41.2 ± 1.1 µM; in [6] it was more than 100 µM; in test [7], more than 100 µM. The IC50 in test [8] is more than 100 µM.
In the case of `CCc1ccc(/C=C(\C#N)c2ccc(C(F)(F)F)cc2)cc1` [Compound 1f2p], the IC50 (in test [1]; in [2]; in the test with MCF-7 breast cancer cell; in the test with HepG2 hepatoma cell; in the test with A549 lung cancer cell; in the test on L-02 normal liver cell) was more than 100 µM in each case. Moreover, the half-inhibitory concentration (IC50) (in [3]; in test [4]; in test [5]; with AGS gastric cancer cell; in test [6]; in test [7]) was more than 100 µM throughout. Further, in test [8], the IC50 is more than 100 µM.
